Here are results for 32 compounds from US20220152004A1, “HETEROCYCLYL(PHENYL)METHANOL COMPOUNDS USEFUL IN THE TREATMENT OF HYPERGLYCAEMIA” (ATROGI AB, priority 2019, published 2022).

Where a name gives a salt, the structure may show the parent alone.

Assay [1] has as its system L6-myotubes. As to the kind of experiment: Glucose uptake (3H-2-deoxy-glucose) in differentiated L6-myotubes. Format: cell-based. Particulars: agonist final concentration 1×10^−5; for Emax at 10 µM: differentiated L6-myotubes, Table 1, read-out: Biological example 1 (glucose uptake, activity compared to that of isoproterenol); for Biological example 3: Table 2, glucose uptake assay of Biological Example 1. As to the method: (§1) L6-myoblasts were grown in Dulbecco's Modified Eagle's Medium (DMEM) containing 4.5 g/l glucose supplemented with 10% fetal bovine serum, 2 mM L-Glutamine, 50 U/ml penicillin, 50 μg/ml streptomycin and 10 mM HEPES. Cells were plated at 1×10^5 cells per ml in 24-well plates. After reaching 90% confluence the cells were grown in medium containing 2% FBS for 7 days where upon cells differentiated into myotubes.
Differentiated L6-myotubes were serum-starved overnight in medium containing 0,5% fatty-acid free BSA and stimulated with agonist, final concentration 1×10^−5. After 1 h 40 min cells were washed with warm, glucose free medium or PBS and another portion of agonist was added to glucose free medium. After 20 min the cells were exposed to 50 nM ^3H-2-deoxy-glucose for another 10 min before washed in ice cold glucose free medium or PBS and lysed in 0.2 M NaOH for 1 h in 60° C.

The test system of assay [2] is L6-myotubes. Put plainly: Measurement of intracellular cAMP levels in differentiated L6-myotubes. It counts as cell-based. Particulars: for Emax at 10 µM: 0.25 h, agonist final concentration 1×10^−5, 15 min, differentiated cells, Table 1, read-out: Biological example 2 (intracellular cAMP levels, activity compared to that of isoproterenol). As to the method: as §1
Differentiated cells were serum-starved overnight and stimulated with agonist, final concentration 1×10^−5, for 15 min in stimulation buffer (HBSS supplemented with 1% BSA, 5 mM HEPES and 1 mM IBMX, pH 7,4) The medium was then aspirated and to end the reaction 100 μL of 95% EtOH was added to each well of a 24-well plate and cells were kept in −20° C. over night. The EtOH was let to evaporate and 500 μL of lysis buffer (1% BSA, 5 mM HEPES and 0,3% Tween-20, pH 7,4) was added to each well before put in −80° C. for 30 min and then kept in −20° C. Intracellular cAMP levels were detected using an alpha screen cAMP kit (6760635D from Perkin Elmer). The activity for each compound is compared to that of isoproterenol.

Regarding `CC1(C)CCC[C@H]([C@H](O)c2cccc(F)c2)N1` [Example 1, (R)-((R)-6,6-Dimethylpiperidin-2-yl)(3-fluorophenyl)methanol], the Emax at 10 µM in assay [1] was 50 to 75%; in assay [2] it was less than 25%.

With `CC1(C)CCC[C@H]([C@@H](O)c2cccc(F)c2)N1` [Example 2, (S)-((R)-6,6-Dimethylpiperidin-2-yl)(3-fluorophenyl)methanol], the Emax at 10 µM in assay [1] and in assay [2] was less than 25% in each case.

In the case of `CC1(C)CCC[C@H]([C@H](O)c2cccc(O)c2)N1` [Example 3, 3-((R)-((R)-6,6-Dimethylpiperidin-2-yl)(hydroxy)methyl)phenol acetate], the results for the Emax at 10 µM in assay [1] and in assay [2] were 25 to 50% and less than 25%, respectively.

On to `CC1(C)CCC[C@H]([C@@H](O)c2cccc(O)c2)N1` [Example 4, 3-((S)-((R)-6,6-Dimethylpiperidin-2-yl)(hydroxy)methyl)phenol acetate], for which the Emax at 10 µM in assay [1] was 25 to 50%; in assay [2] it was less than 25%.

For the compound `CC1(C)CCC[C@H]([C@H](O)c2ccccc2Cl)N1` [Example 5, (R)-(2-Chlorophenyl)((R)-6,6-dimethylpiperidin-2-yl)methanol hydrochloride], the Emax at 10 µM was 25 to 50% in assay [1] and less than 25% in assay [2].

As to `CC1(C)CCC[C@H]([C@@H](O)c2ccccc2Cl)N1` [Example 6, (S)-(2-Chlorophenyl)((R)-6,6-dimethylpiperidin-2-yl)methanol hydrochloride], the Emax at 10 µM in assay [1] is more than 75%; in assay [2], less than 25%.

For the compound `CC1(C)CCC[C@H]([C@H](O)c2cccc(Cl)c2)N1` [Example 7, hydrochloride], the figures for the Emax at 10 µM in assay [1] and in assay [2] were 25 to 50% and less than 25%, respectively.

Turning to `CC1(C)CCC[C@H]([C@H](O)c2ccccc2F)N1` [Example 9, (R)-((R)-6,6-Dimethylpiperidin-2-yl)(2-fluorophenyl)methanol hydrochloride], the Emax at 10 µM in assay [1] was 50 to 75%; in assay [2], less than 25%.

With `CC1(C)CCC[C@H]([C@@H](O)c2ccccc2F)N1` [Example 10, (S)-((R)-6,6-Dimethylpiperidin-2-yl)(2-fluorophenyl)methanol hydrochloride], the Emax at 10 µM is more than 75% in assay [1] and 25 to 50% in assay [2].

As for `CC1(C)CC[C@H]([C@H](O)c2cccc(F)c2)N1` [Example 11, (R)-((R)-5,5-Dimethylpyrrolidin-2-yl)(3-fluorophenyl)methanol hydrochloride], the Emax at 10 µM in assay [1] was more than 75%; in assay [2], less than 25%.

As to `CC1(C)CC[C@H]([C@@H](O)c2cccc(F)c2)N1` [Example 12, (S)-((R)-5,5-Dimethylpyrrolidin-2-yl)(3-fluorophenyl)methanol hydrochloride], the results for the Emax at 10 µM in assay [1] and in assay [2] were 25 to 50% and less than 25%, respectively.

Regarding `CC1(C)CC[C@@H]([C@H](O)c2cccc(F)c2)N1` [Example 13, (R)-((S)-5,5-Dimethylpyrrolidin-2-yl)(3-fluorophenyl)methanol hydrochloride], the Emax at 10 µM in assay [1] and in assay [2] was less than 25% in each case.

As to `CC1(C)CC[C@@H]([C@@H](O)c2cccc(F)c2)N1` [Example 14, (S)-((S)-5,5-Dimethylpyrrolidin-2-yl)(3-fluorophenyl)methanol hydrochloride], the Emax at 10 µM in assay [1] was 25 to 50%; in assay [2] it was less than 25%.

For the compound `CC1(C)CC[C@H]([C@H](O)c2cccc(O)c2)N1` [Example 15, (R)-((R)-5,5-Dimethylpyrrolidin-2-yl)(hydroxy)methyl)phenol acetate], the Emax at 10 µM in assay [1] was more than 75%; in assay [2] it was less than 25%.

For the compound `CC1(C)CC[C@H]([C@@H](O)c2cccc(O)c2)N1` [Example 16, (S)-((R)-5,5-Dimethylpyrrolidin-2-yl)(hydroxy)methyl)phenol acetate], the Emax at 10 µM is 50 to 75% in assay [1] and less than 25% in assay [2].

Take `CC1(C)CC[C@@H]([C@H](O)c2cccc(O)c2)N1` [Example 17]: the Emax at 10 µM is 25 to 50% in assay [1] and less than 25% in assay [2].

For `CC1(C)CC[C@@H]([C@@H](O)c2cccc(O)c2)N1` [Example 18], the Emax at 10 µM in assay [1] and in assay [2] was less than 25% in each case.

Take `CC1(C)CC[C@H]([C@H](O)c2ccccc2F)N1` [Example 19, (R)-((R)-5,5-Dimethylpyrrolidin-2-yl)(2-fluorophenyl)methanol hydrochloride]: the values for the Emax at 10 µM in assay [1] and in assay [2] were more than 75% and less than 25%, respectively.

`CC1(C)CC[C@H]([C@@H](O)c2ccccc2F)N1` [Example 20, (S)-((R)-5,5-Dimethylpyrrolidin-2-yl)(2-fluorophenyl)methanol hydrochloride]: the Emax at 10 µM was 25 to 50% in assay [1] and less than 25% in assay [2].

Take `CC1(C)CC[C@H]([C@H](O)c2ccc(F)cc2)N1` [Example 21, (R)-((R)-5,5-Dimethylpyrrolidin-2-yl)(4-fluorophenyl)methanol hydrochloride]: the values for the Emax at 10 µM in assay [1] and in assay [2] were 50 to 75% and less than 25%, respectively.

Regarding `CC1(C)CC[C@H]([C@@H](O)c2ccc(F)cc2)N1` [Example 22, (S)-((R)-5,5-Dimethylpyrrolidin-2-yl)(4-fluorophenyl)methanol hydrochloride], the Emax at 10 µM in assay [1] and in assay [2] was less than 25% in each case.

For the compound `CC1(C)CC[C@H]([C@H](O)c2ccccc2Cl)N1` [Example 23, (R)-(2-Chlorophenyl)((R)-5,5-dimethylpyrrolidin-2-yl)methanol hydrochloride], the Emax at 10 µM is more than 75% in assay [1] and less than 25% in assay [2].

In the case of `CC1(C)CC[C@H]([C@@H](O)c2ccccc2Cl)N1` [Example 24, (S)-(2-Chlorophenyl)((R)-5,5-dimethylpyrrolidin-2-yl)methanol hydrochloride], the Emax at 10 µM in assay [1] and in assay [2] was less than 25% throughout.

Consider `CC1(C)CC[C@H]([C@H](O)c2cccc(Cl)c2)N1` [Example 25, (R)-(3-Chlorophenyl)((R)-5,5-dimethylpyrrolidin-2-yl)methanol hydrochloride], for which the Emax at 10 µM in assay [1] is more than 75%; in assay [2] it was less than 25%.

As to `CCCC1(CCC)CC[C@H]([C@H](O)c2cccc(F)c2)N1` [Example 27, (R)-((R)-5,5-Dipropylpyrrolidin-2-yl)(3-fluorophenyl)methanol hydrochloride], the Emax at 10 µM in assay [1] was 50 to 75%; in assay [2], less than 25%.

Turning to `CCCC1(CCC)CC[C@H]([C@@H](O)c2cccc(F)c2)N1` [Example 28, (S)-((R)-5,5-Dipropylpyrrolidin-2-yl)(3-fluorophenyl)methanol hydrochloride], the Emax at 10 µM in assay [1] and in assay [2] was less than 25% in each case.

Regarding `O[C@H](c1cccc(F)c1)[C@H]1CCC2(CC2)N1` [Example 29, (R)-(3-Fluorophenyl)((R)-4-azaspiro[2.4]heptan-5-yl)methanol hydrochloride], the Emax at 10 µM in assay [1] was 50 to 75%; in assay [2], less than 25%.

`O[C@@H](c1cccc(F)c1)[C@H]1CCC2(CC2)N1` [Example 30, (S)-(3-Fluorophenyl)((R)-4-azaspiro[2.4]heptan-5-yl)methanol hydrochloride]: the Emax at 10 µM in assay [1] was 25 to 50%; in assay [2], less than 25%.

`O[C@H](c1cccc(F)c1)[C@H]1CCC2(CCCC2)N1` [Example 31, (R)-(3-Fluorophenyl)((R)-1-azaspiro[4.4]nonan-2-yl)methanol maleate]: the figures for the Emax at 10 µM in assay [1] and in assay [2] were 50 to 75% and 25 to 50%, respectively.

`O[C@@H](c1cccc(F)c1)[C@H]1CCC2(CCCC2)N1` [Example 32, (S)-(3-Fluorophenyl)((R)-1-azaspiro[4.4]nonan-2-yl)methanol maleate]: the Emax at 10 µM in assay [1] and in assay [2] was less than 25% each time.

Regarding `CC1(C)C[C@H]([C@H](O)c2cccc(F)c2)N1.Cl` [Example 33, (R)-((R)-4,4-dimethylazetidin-2-yl)(3-fluorophenyl)methanol hydrochloride], the “Biological example 3” value in assay [1] is “+++ (more than 75% of that of isoproterenol)”. The “Biological example 4” value in assay [2] (Table 2, cAMP assay of Biological Example 2, agonist final concentration 1×10^−5) was “++ (between 75 and 50%)”.

Turning to `CC1(C)CC[C@H]([C@@H](O)c2cc(F)c(N)c(F)c2)N1.Cl` [Example 51, (S)-(4-Amino-3,5-difluorophenyl)((R)-5,5-dimethylpyrrolidin-2-yl)methanol hydrochloride], the “Biological example 3” value in assay [1] is “+++ (more than 75% of that of isoproterenol)”.
